Where a name gives a salt, the structure may show the parent alone. Read-outs that look alike come from different tables or passages of the source.
Tested on: behaviors of compound-treated mice
Assay: Neuropharmacological Assay (SmartCube)
Type: in vivo
Details: for minimal effective dose: Mus musculus, ip, 0.25 h, dose having 50% or more total activity in SmartCube, read-out: MED (minimal effective dose)
Method in brief: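 Behavioral signatures were captured automatically by video, and each drug class received a probability for the best of three i.p. doses given 15 min pre-test (vehicle: Pharmasolve/PEG/propylene glycol). Potency is given as MED, the lowest mpk dose (typically 0.3–30) reaching 50% or more total activity.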

[1] = i.p. 15 min before behavioral test, most efficacious dose(s) of 3 doses
[2] = SmartCube, i.p. 15 min before test, most efficacious dose(s)

Row | Structure (SMILES) | minimal effective dose (i.p.) [mg/kg] | AD: ADHD (probability that activity matches class) [1] | AG: analgesic (probability that activity matches class) [1] | AX: anxiolytic (probability that activity matches class) [1] | CE: cognitive enhancer (probability that activity matches class) [1] | DP: anti-depressant (probability that activity matches class) [1] | MS: mood stabilizer (probability that activity matches class) [1] | PS: anti-psychotic (probability that activity matches class) [1] | SD: sedative hypnotic (probability that activity matches class) [1] | UN: uncharacterized CNS activity (probability that activity matches class) [1] | minimal effective dose [mg/kg] | AD: ADHD (probability that activity matches class) [2] | AG: analgesic (probability that activity matches class) [2] | AX: anxiolytic (probability that activity matches class) [2] | CE: cognitive enhancer (probability that activity matches class) [2] | DP: anti-depressant (probability that activity matches class) [2] | MS: mood stabilizer (probability that activity matches class) [2] | PS: anti-psychotic (probability that activity matches class) [2] | SD: sedative hypnotic (probability that activity matches class) [2] | UN: uncharacterized CNS activity (probability that activity matches class) [2]
1 | c1cc(-c2ccncc2)c2c(c1)[C@H](CNC1CC1)OCC2 (single isomer, unassigned) [Compound 180, hydrochloride salt] | 3 to 10 | + (LOQ ≤ + <5%) | + (LOQ ≤ + <5%) | ++ (5% ≤ ++ <25%) | + (LOQ ≤ + <5%) | ++ (5% ≤ ++ <25%) | + (LOQ ≤ + <5%) | + (LOQ ≤ + <5%) | + (LOQ ≤ + <5%) | ++++ (50% ≤ ++++) | – | – | – | – | – | – | – | – | – | –
2 | c1cc(-c2ccncc2)c2c(c1)[C@@H](CNC1CC1)OCC2 (single isomer, unassigned) [Compound 181, hydrochloride salt] | – | – | – | – | – | – | – | – | – | – | ≤ 3 | ++ (5% ≤ ++ <25%) | + (LOQ ≤ + <5%) | + (LOQ ≤ + <5%) | + (LOQ ≤ + <5%) | ++++ (50% ≤ ++++) | + (LOQ ≤ + <5%) | + (LOQ ≤ + <5%) | + (LOQ ≤ + <5%) | ++ (5% ≤ ++ <25%)
3 | CNC[C@H]1OCCc2cccc(-c3cccnc3)c21 [Compound 2, (S)-N-Methyl-1-(8-(pyridin-3-yl)isochroman-1-yl)methanamine bis-hydrochloride] | > 30 | + (LOQ ≤ + <5%) | + (LOQ ≤ + <5%) | + (LOQ ≤ + <5%) | + (LOQ ≤ + <5%) | + (LOQ ≤ + <5%) | + (LOQ ≤ + <5%) | + (LOQ ≤ + <5%) | + (LOQ ≤ + <5%) | + (LOQ ≤ + <5%) | – | – | – | – | – | – | – | – | – | –
4 | CNC[C@H]1OCCc2ccc(-c3cccnc3)cc21 [Compound 4, (S)-N-methyl-1-(7-(pyridin-3-yl)isochroman-1-yl)methanamine dihydrochloride] | 3 to 10 | + (LOQ ≤ + <5%) | + (LOQ ≤ + <5%) | ++ (5% ≤ ++ <25%) | + (LOQ ≤ + <5%) | ++ (5% ≤ ++ <25%) | + (LOQ ≤ + <5%) | +++ (25% ≤ +++ <50%) | + (LOQ ≤ + <5%) | ++ (5% ≤ ++ <25%) | – | – | – | – | – | – | – | – | – | –
5 | CNC[C@@H]1OCCc2cc(-c3cccnc3)ccc21 [Compound 5, (R)-N-Methyl(6-(pyridin-3-yl)isochroman-1-yl)methanamine bis-hydrochloride] | 3 to 10 | + (LOQ ≤ + <5%) | ++ (5% ≤ ++ <25%) | ++ (5% ≤ ++ <25%) | + (LOQ ≤ + <5%) | ++++ (50% ≤ ++++) | + (LOQ ≤ + <5%) | ++ (5% ≤ ++ <25%) | + (LOQ ≤ + <5%) | + (LOQ ≤ + <5%) | – | – | – | – | – | – | – | – | – | –
6 | CNC[C@H]1OCCc2cc(-c3cccnc3)ccc21 [Compound 6, (S)-N-methyl(6-(pyridin-3-yl)isochroman-1-yl)methanamine bis-hydrochloride] | 10 to 30 | + (LOQ ≤ + <5%) | ++ (5% ≤ ++ <25%) | ++ (5% ≤ ++ <25%) | ++ (5% ≤ ++ <25%) | +++ (25% ≤ +++ <50%) | + (LOQ ≤ + <5%) | ++ (5% ≤ ++ <25%) | + (LOQ ≤ + <5%) | + (LOQ ≤ + <5%) | – | – | – | – | – | – | – | – | – | –
7 | NC[C@H]1OCCc2cc(-c3cccnc3)ccc21 [Compound 14, hydrochloride salt] | 3 to 10 | + (LOQ ≤ + <5%) | ++ (5% ≤ ++ <25%) | ++ (5% ≤ ++ <25%) | + (LOQ ≤ + <5%) | ++++ (50% ≤ ++++) | + (LOQ ≤ + <5%) | + (LOQ ≤ + <5%) | + (LOQ ≤ + <5%) | ++ (5% ≤ ++ <25%) | – | – | – | – | – | – | – | – | – | –
8 | NC[C@@H]1OCCc2c(-c3cccnc3)cccc21 [Compound 15, (R)-(5-(Pyridin-3-yl)isochroman-1-yl)methanamine hydrochloride] | 10 to 30 | ++ (5% ≤ ++ <25%) | ++ (5% ≤ ++ <25%) | ++ (5% ≤ ++ <25%) | + (LOQ ≤ + <5%) | +++ (25% ≤ +++ <50%) | ++ (5% ≤ ++ <25%) | ++ (5% ≤ ++ <25%) | + (LOQ ≤ + <5%) | + (LOQ ≤ + <5%) | – | – | – | – | – | – | – | – | – | –
9 | NC[C@H]1OCCc2c(-c3cccnc3)cccc21 [Compound 16, (S)-(5-(Pyridin-3-yl)isochroman-1-yl)methanamine hydrochloride] | ≤ 3 | + (LOQ ≤ + <5%) | + (LOQ ≤ + <5%) | ++ (5% ≤ ++ <25%) | ++ (5% ≤ ++ <25%) | ++++ (50% ≤ ++++) | + (LOQ ≤ + <5%) | + (LOQ ≤ + <5%) | + (LOQ ≤ + <5%) | + (LOQ ≤ + <5%) | – | – | – | – | – | – | – | – | – | –
